# In patent US9302999B2, “Substituted triazoles as herbicides” (E. I. DU PONT DE NEMOURS AND COMPANY, priority 2012, dated 2016):
# Key:
# Assay type in all cases: in vivo
# [1] = system: barnyardgrass (Echinochloa crus-galli); test: Test A pre-/postemergence: barnyardgrass; settings: for Barnyardgrass plant response rating: Postemergence; for Plant response rating, Barnyardgrass: Preemergence
# In short: (§1)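 Whole-plant greenhouse assay in loam/sand. Preemergence directed soil spray plus simultaneous postemergence spray (one- to two-leaf stage, 2–10 cm). Rated visually ~10 days later, 0 = no effect, 100 = complete control.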
# [2] = system: crabgrass, large (large crabgrass, Digitaria sanguinalis); test: Test A pre-/postemergence: crabgrass, large; settings: for Crabgrass, Large plant response rating: Postemergence; for Plant response rating, Crabgrass, Large: Preemergence
# In short: as §1
# [3] = system: foxtail, giant (giant foxtail, Setaria faberii); test: Test A pre-/postemergence: foxtail, giant; settings: for Foxtail, Giant plant response rating: Postemergence; for Plant response rating, Foxtail, Giant: Preemergence
# In short: as §1
# [4] = system: morningglory (Ipomoea spp.); test: Test A pre-/postemergence: morningglory; settings: for Morningglory plant response rating: Postemergence; for Plant response rating, Morningglory: Preemergence
# In short: as §1
# [5] = system: pigweed (Amaranthus retroflexus); test: Test A pre-/postemergence: pigweed; settings: for Pigweed plant response rating: Postemergence; for Plant response rating, Pigweed: Preemergence
# In short: as §1
# [6] = system: velvetleaf (Abutilon theophrasti); test: Test A pre-/postemergence: velvetleaf; settings: for Velvetleaf plant response rating: Postemergence; for Plant response rating, Velvetleaf: Preemergence
# In short: as §1
# [7] = system: wheat (Triticum aestivum); test: Test A pre-/postemergence: wheat; settings: for Wheat plant response rating: Postemergence; for Plant response rating, Wheat: Preemergence
# In short: as §1
# corn (Zea mays) = test: Test A pre-/postemergence: corn; settings: for Corn plant response rating: Postemergence; for Plant response rating, Corn: Preemergence
# In short: as §1
# rice (Oryza sativa) = test: Test C flooded paddy test: rice; settings: scale 0 to 100 (0 no effect, 100 complete control)
# In short: (§2)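 Greenhouse plants treated at the 2-leaf stage by dosing the flood water (3 cm depth, maintained) were compared with controls after 13 to 15 days and rated 0 to 100, where 100 means complete control; a dash marks no test result.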
# [8] = system: sedge, umbrella (small-flower umbrella sedge, Cyperus difformis); test: Test C flooded paddy test: sedge, umbrella; settings: scale 0 to 100 (0 no effect, 100 complete control)
# In short: as §2
# [9] = system: ducksalad (Heteranthera limosa); test: Test C flooded paddy test: ducksalad; settings: scale 0 to 100 (0 no effect, 100 complete control)
# In short: as §2
# [10] = system: barnyardgrass (Echinochloa crus-galli); test: Test C flooded paddy test: barnyardgrass; settings: scale 0 to 100 (0 no effect, 100 complete control)
# In short: as §2
# [11] = 125 g ai/ha, 0 to 100 scale, 0 is no effect, 100 is complete control
# [12] = 500 g ai/ha, visual rating on 0 to 100 scale (0 no effect, 100 complete control), approximately ten days
# [13] = 125 g ai/ha, 0 to 100 scale (0 no effect, 100 complete control)
# [14] = 500 g ai/ha, 0 to 100 scale, 0 is no effect, 100 is complete control
# [15] = Flood (flooded paddy test), 62 g ai/ha, visual rating after 13 to 15 days
# [16] = Flood (flooded paddy test), 125 g ai/ha, visual rating after 13 to 15 days
# [17] = Flood (flooded paddy test), 250 g ai/ha, visual rating after 13 to 15 days
compound,measurement,setting,value
Cc1nn(-c2ccc(C(F)(F)F)cc2)nc1C(=O)c1cccc(C(F)(F)F)c1 [Compound 45],Barnyardgrass plant response rating,[1]; [11],10
same,Barnyardgrass plant response rating,[1]; [12],10
same,"Plant response rating, Barnyardgrass",[1]; [13],0
same,"Plant response rating, Barnyardgrass",[1]; [14],10
same,"Crabgrass, Large plant response rating",[2]; [11],60
same,"Crabgrass, Large plant response rating",[2]; [12],70
same,"Plant response rating, Crabgrass, Large",[2]; [13],70
same,"Plant response rating, Crabgrass, Large",[2]; [14],70
same,"Foxtail, Giant plant response rating",[3]; [11],20
same,"Foxtail, Giant plant response rating",[3]; [12],50
same,"Plant response rating, Foxtail, Giant",[3]; [13],50
same,"Plant response rating, Foxtail, Giant",[3]; [14],60
same,Morningglory plant response rating,[4]; [11],40
same,Morningglory plant response rating,[4]; [12],80
same,"Plant response rating, Morningglory",[4]; [13],0
same,"Plant response rating, Morningglory",[4]; [14],10
same,Pigweed plant response rating,[5]; [11],100
same,Pigweed plant response rating,[5]; [12],100
same,"Plant response rating, Pigweed",[5]; [13],10
same,"Plant response rating, Pigweed",[5]; [14],20
same,Velvetleaf plant response rating,[6]; [11],40
same,Velvetleaf plant response rating,[6]; [12],70
same,"Plant response rating, Velvetleaf",[6]; [13],0
same,"Plant response rating, Velvetleaf",[6]; [14],10
same,Wheat plant response rating,[7]; [11],10
same,Wheat plant response rating,[7]; [12],20
same,"Plant response rating, Wheat",[7]; [13],0
same,"Plant response rating, Wheat",[7]; [14],0
same,Corn plant response rating,corn (Zea mays); [11],10
same,Corn plant response rating,corn (Zea mays); [12],20
same,"Plant response rating, Corn",corn (Zea mays); [13],0
same,"Plant response rating, Corn",corn (Zea mays); [14],0
same,"Plant response rating, Rice",rice (Oryza sativa); [15],0
same,"Plant response rating, Rice",rice (Oryza sativa); [16],0
same,"Plant response rating, Rice",rice (Oryza sativa); [17],0
same,"Plant response rating, Rice","rice (Oryza sativa); Flood, 31 g ai/ha",0
same,"Plant response rating, Sedge, Umbrella",[8]; [15],0
same,"Plant response rating, Sedge, Umbrella",[8]; [16],0
same,"Plant response rating, Sedge, Umbrella",[8]; [17],0
same,"Plant response rating, Sedge, Umbrella","[8]; Flood, 31 g ai/ha",0
same,"Plant response rating, Ducksalad",[9]; [15],0
same,"Plant response rating, Ducksalad",[9]; [16],0
same,"Plant response rating, Ducksalad",[9]; [17],0
same,"Plant response rating, Ducksalad","[9]; Flood, 31 g ai/ha",0
same,"Plant response rating, Barnyardgrass",[10]; [15],0
same,"Plant response rating, Barnyardgrass",[10]; [16],0
same,"Plant response rating, Barnyardgrass",[10]; [17],0
same,"Plant response rating, Barnyardgrass","[10]; Flood, 31 g ai/ha",0
Cc1nn(-c2ccccc2[N+](=O)[O-])nc1C(=O)c1cccc(C(F)(F)F)c1 [Compound 63],Barnyardgrass plant response rating,[1]; [11],0
same,Barnyardgrass plant response rating,[1]; [12],0
same,"Plant response rating, Barnyardgrass",[1]; [13],0
same,"Plant response rating, Barnyardgrass",[1]; [14],0
same,"Crabgrass, Large plant response rating",[2]; [11],0
same,"Crabgrass, Large plant response rating",[2]; [12],0
same,"Plant response rating, Crabgrass, Large",[2]; [13],0
same,"Plant response rating, Crabgrass, Large",[2]; [14],0
same,"Foxtail, Giant plant response rating",[3]; [11],0
same,"Foxtail, Giant plant response rating",[3]; [12],0
same,"Plant response rating, Foxtail, Giant",[3]; [13],0
same,"Plant response rating, Foxtail, Giant",[3]; [14],0
same,Morningglory plant response rating,[4]; [11],0
same,Morningglory plant response rating,[4]; [12],0
same,"Plant response rating, Morningglory",[4]; [13],0
same,"Plant response rating, Morningglory",[4]; [14],0
same,Pigweed plant response rating,[5]; [11],0
same,Pigweed plant response rating,[5]; [12],10
same,"Plant response rating, Pigweed",[5]; [13],0
same,"Plant response rating, Pigweed",[5]; [14],0
same,Velvetleaf plant response rating,[6]; [11],0
same,Velvetleaf plant response rating,[6]; [12],0
same,"Plant response rating, Velvetleaf",[6]; [13],0
same,"Plant response rating, Velvetleaf",[6]; [14],0
same,Wheat plant response rating,[7]; [11],0
same,Wheat plant response rating,[7]; [12],0
same,"Plant response rating, Wheat",[7]; [13],0
same,"Plant response rating, Wheat",[7]; [14],0
same,Corn plant response rating,corn (Zea mays); [11],0
same,Corn plant response rating,corn (Zea mays); [12],0
same,"Plant response rating, Corn",corn (Zea mays); [13],0
same,"Plant response rating, Corn",corn (Zea mays); [14],0
same,"Plant response rating, Rice",rice (Oryza sativa); [15],0
same,"Plant response rating, Rice",rice (Oryza sativa); [16],0
same,"Plant response rating, Rice",rice (Oryza sativa); [17],0
same,"Plant response rating, Rice","rice (Oryza sativa); Flood, 31 g ai/ha",0
same,"Plant response rating, Sedge, Umbrella",[8]; [15],0
same,"Plant response rating, Sedge, Umbrella",[8]; [16],0
same,"Plant response rating, Sedge, Umbrella",[8]; [17],0
same,"Plant response rating, Sedge, Umbrella","[8]; Flood, 31 g ai/ha",0
same,"Plant response rating, Ducksalad",[9]; [15],0
same,"Plant response rating, Ducksalad",[9]; [16],0
same,"Plant response rating, Ducksalad",[9]; [17],0
same,"Plant response rating, Ducksalad","[9]; Flood, 31 g ai/ha",0
same,"Plant response rating, Barnyardgrass",[10]; [15],0
same,"Plant response rating, Barnyardgrass",[10]; [16],0
same,"Plant response rating, Barnyardgrass",[10]; [17],0
same,"Plant response rating, Barnyardgrass","[10]; Flood, 31 g ai/ha",0
